Earlier results in patent US20100233259A1, “DOSAGE FORM OF ROPINIROLE” (priority 2008, published 2010).

Details: in vivo

CCCN(CCC)CCc1cccc2c1CC(=O)N2 [Ropinirole]
half life: 5 to 6 h
